In patent US7291622B2, “Medical uses of carbamate-substituted pyrazolo-pyridine derivatives” (Bayer Aktiengesellschaft, priority 2000, dated 2007):

System: rabbit aorta rings
Experiment: Vasorelaxant effect in vitro (phenylephrine-contracted rabbit aorta rings)
Details: Oryctolagus cuniculus; rabbit aortic rings, phenylephrine contraction; concentration reducing height of control contraction by 50%
Procedure: Vasorelaxant Effect In Vitro
Rabbits are stunned by a blow to the back of the neck and are exsanguinated. The aorta is removed, freed of adherent tissue and divided into rings 1.5 mm wide, which are put singly under tension in 5 ml organ baths containing carbogen-gassed Krebs-Henseleit solution at 37° C. with the following composition (mM): NaCl: 119; KCl: 4.8; CaCl2×2H2O: 1; MgSO4×7H2O: 1.4; KH2PO4: 1.2; NaHCO3: 25; glucose: 10. The force of contraction is detected with Statham UC2 cells, amplified and digitized via A/D converters (DAS-1802 HC, Keithley Instruments Munich) and recorded in parallel on chart recorders. A contraction is generated by adding phenylephrine to the bath cumulatively in increasing concentration. After several control cycles, the substance to be investigated is investigated in each further run in increasing dosage in each case, and the height of the contraction is compared with the height of the contraction reached in the last preceding run. The concentration necessary to reduce the height of the control value by 50% (IC50) is calculated from this. The standard application volume is 5 μl, and the DMSO content in the bath solution corresponds to 0.1%.

| SMILES | IC50 [nM] |
| --- | --- |
| CN(C)C(=S)Oc1cnc(-c2nn(Cc3ccccc3F)c3ncccc23)nc1N [Example 19] | 420 |
| Nc1nc(-c2nn(Cc3ccccc3F)c3ncccc23)ncc1CC(=O)N1CCOCC1 [Example 2] | 650 |
| CCOC(=O)CN(C(=O)Oc1cnc(-c2nn(Cc3ccccc3F)c3ncccc23)nc1N)C(C)COC (centres unmarked) [Example 15] | 320 |
| C=CCN(CC=C)C(=O)Oc1cnc(-c2nn(Cc3ccccc3F)c3ncccc23)nc1N [Example 11] | 520 |
| CCN(CC)C(=O)Nc1nc(-c2nn(Cc3ccccc3F)c3ncccc23)ncc1OC(=O)N(CC)CC [Example 26, 4-{[(Diethylamino)carbonyl]amino}-2-[1-(2-fluorobenzyl)-1H-pyrazolo[3,4-b]pyridin-3-yl]-5-pyrimidinyl diethylcarbamate] | 340 |
